From patent US9149038B2, “4-amino-6-(heterocyclic)picolinates and 6-amino-2-(heterocyclic)pyrimidine-4-carboxylates and their use as herbicides” (Dow AgroSciences LLC, priority 2013, dated 2015)
Read-outs that look alike come from different tables or passages of the source.

System: Direct Seeded Rice and weed species
Assay: Postemergence herbicidal activity in direct seeded rice, visual rating after 20-22 days and probit GR20/GR50/GR80/GR90 (Table 14)
Assay type: in vivo
Conditions: for pest or weed control at 17.5 g/ha / pest or weed control at 35 g/ha / pest or weed control at 70 g/ha: post-emergence, 504 h, postemergence; for pest or weed control at 17.5 g/ha: 17.5 g ai/ha; for pest or weed control at 35 g/ha: 35 g ai/ha; for pest or weed control at 70 g/ha: 70 g ai/ha
Method in brief: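 Rice and weeds grown in loam–sand soil (pH about 8.1) in greenhouse to 2nd–3rd true leaf, then sprayed postemergence at 187 L/ha in acetone/DMSO with 1.25% (v/v) Agri-dex crop oil. Injury rated visually 0–100 after 20-22 days versus untreated plants; GR20, GR50, GR80, GR90 obtained by probit analysis across dose rates.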

[1] = BRAPP (broadleaf signalgrass, Brachiaria platyphylla), read-out: Visual Growth Reduction (%) 21 Days After Application BRAPP
[2] = CYPDI (small-flower flatsedge, Cyperus difformis), read-out: Visual Growth Reduction (%) 21 Days After Application CYPDI
[3] = CYPES (yellow nutsedge, Cyperus esculentus), read-out: Visual Growth Reduction (%) 21 Days After Application CYPES
[4] = CYPIR (rice flatsedge, Cyperus iria), read-out: Visual Growth Reduction (%) 21 Days After Application CYPIR
[5] = DIGSA (large crabgrass, Digitaria sanguinalis), read-out: Visual Growth Reduction (%) 21 Days After Application DIGSA
[6] = ECHCG (barnyardgrass, Echinochloa crus-galli), read-out: Visual Growth Reduction (%) 21 Days After Application ECHCG
[7] = ECHCO (junglerice, Echinochloa colonum), read-out: Visual Growth Reduction (%) 21 Days After Application ECHCO
[8] = LEFCH (Chinese sprangletop, Leptochloa chinensis), read-out: Visual Growth Reduction (%) 21 Days After Application LEFCH
[9] = ORYSJ (Oryza sativa, rice crop), read-out: Visual Growth Reduction (%) 21 Days After Application ORYSJ
[10] = ORYSK (Oryza sativa, rice crop), read-out: Visual Growth Reduction (%) 21 Days After Application ORYSK
[11] = SCPJU (Japanese bulrush, Schoenoplectus juncoides Roxb.), read-out: Visual Growth Reduction (%) 21 Days After Application SCPJU
[12] = SEBEX (hemp sesbania, Sesbania exaltata), read-out: Visual Growth Reduction (%) 21 Days After Application SEBEX

`COc1c(C(=O)O)nc(-c2ccc3c(c2)OC(F)(F)O3)c(F)c1N` [Compound 25] was tested, and the “GR50 BRAPP” value (BRAPP (Brachiaria platyphylla), probit analysis, dose for 50 percent growth reduction) was 4 g ai/ha, the “GR80 BRAPP” value (BRAPP (Brachiaria platyphylla), probit analysis, dose for 80 percent growth reduction) was 9 g ai/ha and the “GR90 BRAPP” value (BRAPP (Brachiaria platyphylla), probit analysis, dose for 90 percent growth reduction) was 13 g ai/ha. The “GR50 CYPDI” value (CYPDI (Cyperus difformis), probit analysis, dose for 50 percent growth reduction) was 0.04 g ai/ha, the “GR80 CYPDI” value (CYPDI (Cyperus difformis), probit analysis, dose for 80 percent growth reduction) was 1 g ai/ha and the “GR90 CYPDI” value (CYPDI (Cyperus difformis), probit analysis, dose for 90 percent growth reduction) was 2 g ai/ha. The “GR50 CYPES” value (CYPES (Cyperus esculentus), probit analysis, dose for 50 percent growth reduction) was 0.04 g ai/ha, the “GR80 CYPES” value (CYPES (Cyperus esculentus), probit analysis, dose for 80 percent growth reduction) was 1 g ai/ha and the “GR90 CYPES” value (CYPES (Cyperus esculentus), probit analysis, dose for 90 percent growth reduction) was 1 g ai/ha. The “GR50 CYPIR” value (CYPIR (Cyperus iria), probit analysis, dose for 50 percent growth reduction) was 2 g ai/ha, the “GR80 CYPIR” value (CYPIR (Cyperus iria), probit analysis, dose for 80 percent growth reduction) was 5 g ai/ha and the “GR90 CYPIR” value (CYPIR (Cyperus iria), probit analysis, dose for 90 percent growth reduction) was 9 g ai/ha. The “GR50 DIGSA” value (DIGSA (Digitaria sanguinalis), probit analysis, dose for 50 percent growth reduction) was 27 g ai/ha, the “GR80 DIGSA” value (DIGSA (Digitaria sanguinalis), probit analysis, dose for 80 percent growth reduction) was 2530 g ai/ha and the “GR90 DIGSA” value (DIGSA (Digitaria sanguinalis), probit analysis, dose for 90 percent growth reduction) was 27000 g ai/ha. For the same compound, the “GR50 ECHCG” value (ECHCG (Echinochloa crus-galli), probit analysis, dose for 50 percent growth reduction) was 0.025 g ai/ha, the “GR80 ECHCG” value (ECHCG (Echinochloa crus-galli), probit analysis, dose for 80 percent growth reduction) was 1 g ai/ha and the “GR90 ECHCG” value (ECHCG (Echinochloa crus-galli), probit analysis, dose for 90 percent growth reduction) was 3 g ai/ha. The “GR50 ECHCO” value (ECHCO (Echinochloa colonum), probit analysis, dose for 50 percent growth reduction) was 2 g ai/ha, the “GR80 ECHCO” value (ECHCO (Echinochloa colonum), probit analysis, dose for 80 percent growth reduction) was 4 g ai/ha and the “GR90 ECHCO” value (ECHCO (Echinochloa colonum), probit analysis, dose for 90 percent growth reduction) was 6 g ai/ha. For the same compound, the “GR50 LEFCH” value (LEFCH (Leptochloa chinensis), probit analysis, dose for 50 percent growth reduction) was 175 g ai/ha, the “GR80 LEFCH” value (LEFCH (Leptochloa chinensis), probit analysis, dose for 80 percent growth reduction) was 463 g ai/ha and the “GR90 LEFCH” value (LEFCH (Leptochloa chinensis), probit analysis, dose for 90 percent growth reduction) was 770 g ai/ha. The “GR20 ORYSJ” value (ORYSJ (Oryza sativa, rice crop), probit analysis, dose for 20 percent growth reduction) was 1 g ai/ha, the “GR20 ORYSK” value (ORYSK (Oryza sativa, rice crop), probit analysis, dose for 20 percent growth reduction) was 3 g ai/ha and the “GR50 SCPJU” value (SCPJU (Schoenoplectus juncoides Roxb.), probit analysis, dose for 50 percent growth reduction) was 0.0001 g ai/ha. For the same compound, the “GR80 SCPJU” value (SCPJU (Schoenoplectus juncoides Roxb.), probit analysis, dose for 80 percent growth reduction) was 0.0001 g ai/ha, the “GR90 SCPJU” value (SCPJU (Schoenoplectus juncoides Roxb.), probit analysis, dose for 90 percent growth reduction) was 0.0001 g ai/ha and the “GR50 SEBEX” value (SEBEX (Sesbania exaltata), probit analysis, dose for 50 percent growth reduction) was 19 g ai/ha. For the same compound, the “GR80 SEBEX” value (SEBEX (Sesbania exaltata), probit analysis, dose for 80 percent growth reduction) was 26 g ai/ha, the “GR90 SEBEX” value (SEBEX (Sesbania exaltata), probit analysis, dose for 90 percent growth reduction) was 30 g ai/ha and the pest or weed control at 17.5 g/ha [1] was 95 to 100%. For the same compound, the pest or weed control at 35 g/ha [1] was 95 to 100%, the pest or weed control at 70 g/ha [1] was 95 to 100% and the pest or weed control at 17.5 g/ha [2] was 95 to 100%. It also gave a pest or weed control at 35 g/ha [2] of 95 to 100%, a pest or weed control at 70 g/ha [2] of 95 to 100% and a pest or weed control at 17.5 g/ha [3] of 95 to 100%. It also gave a pest or weed control at 35 g/ha [3] of 95 to 100%, a pest or weed control at 70 g/ha [3] of 95 to 100% and a pest or weed control at 17.5 g/ha [4] of 85 to 94%. The pest or weed control at 35 g/ha [4] was 95 to 100%, the pest or weed control at 70 g/ha [4] was 95 to 100% and the pest or weed control at 17.5 g/ha [5] was 30 to 44%. The pest or weed control at 35 g/ha [5] was 60 to 74%, the pest or weed control at 70 g/ha [5] was 60 to 74% and the pest or weed control at 17.5 g/ha [6] was 95 to 100%. The pest or weed control at 35 g/ha [6] was 95 to 100%, the pest or weed control at 70 g/ha [6] was 95 to 100% and the pest or weed control at 17.5 g/ha [7] was 95 to 100%. The pest or weed control at 35 g/ha [7] was 95 to 100%, the pest or weed control at 70 g/ha [7] was 95 to 100% and the pest or weed control at 17.5 g/ha [8] was 0 to 29%. The pest or weed control at 35 g/ha [8] was 0 to 29%, the pest or weed control at 70 g/ha [8] was 0 to 29% and the pest or weed control at 17.5 g/ha [9] was 85 to 94%. The pest or weed control at 35 g/ha [9] was 95 to 100%, the pest or weed control at 70 g/ha [9] was 95 to 100% and the pest or weed control at 17.5 g/ha [10] was 85 to 94%. It also gave a pest or weed control at 35 g/ha [10] of 85 to 94%, a pest or weed control at 70 g/ha [10] of 95 to 100% and a pest or weed control at 17.5 g/ha [11] of 95 to 100%. For the same compound, the pest or weed control at 35 g/ha [11] was 95 to 100%, the pest or weed control at 70 g/ha [11] was 95 to 100% and the pest or weed control at 17.5 g/ha [12] was 0 to 29%. For the same compound, the pest or weed control at 35 g/ha [12] was 95 to 100% and the pest or weed control at 70 g/ha [12] was 95 to 100%.
